Drawing on ChEMBL document CHEMBL1128165, “Quinuclidine-based NK1 antagonists, the role of the benzhydryl” (Bioorg Med Chem Lett, 1995), this text covers IC50 for 4 compounds.

What is called IC50 is the concentration that inhibits the measured activity by half. Read a low IC50 as greater potency in that assay.

Experiment [1] concerns the target Substance-P receptor (Homo sapiens, UniProt P25103). Nature of the experiment: Binding affinity towards wild type human Wild-type tachykinin receptor 1 expressed in Chinese hamster ovary cells. In kind it is cell-based.
The target in experiment [2] is Substance-P receptor (Homo sapiens, UniProt P25103, H197A). Nature of the experiment: Binding affinity towards human mutant NK-1 receptor in which His-197 has been replaced by alanine (H197A).
Substance-P receptor (Homo sapiens, UniProt P25103, H197A), sequence (P25103 whole entry H197A): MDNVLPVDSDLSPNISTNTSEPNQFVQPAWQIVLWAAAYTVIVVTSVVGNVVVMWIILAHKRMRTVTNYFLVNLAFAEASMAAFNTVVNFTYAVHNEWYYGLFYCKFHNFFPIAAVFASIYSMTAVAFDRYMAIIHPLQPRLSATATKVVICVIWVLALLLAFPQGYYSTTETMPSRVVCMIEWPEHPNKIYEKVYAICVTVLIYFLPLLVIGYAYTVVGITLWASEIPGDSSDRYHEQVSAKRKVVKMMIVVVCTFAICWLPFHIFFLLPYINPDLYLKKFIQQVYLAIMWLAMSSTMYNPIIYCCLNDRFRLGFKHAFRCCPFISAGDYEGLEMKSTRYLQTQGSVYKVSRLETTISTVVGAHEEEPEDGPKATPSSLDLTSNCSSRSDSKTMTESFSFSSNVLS

Substance-P receptor (Homo sapiens, UniProt P25103), sequence (P25103 whole entry): as the sequence (P25103 whole entry H197A) above, with A197H counted along it

Take `Cc1cc(C)cc(CO[C@H]2C3CCN(CC3)[C@H]2Cc2ccccc2)c1`: the IC50 at Substance-P receptor [1] worked out at 292 nM; on Substance-P receptor [2] it was 845 nM.
Take `FC(F)(F)c1cc(CO[C@H]2C3CCN(CC3)[C@H]2Cc2ccccc2)cc(C(F)(F)F)c1`: the IC50 is 197 nM on Substance-P receptor [1] and 500 nM on Substance-P receptor [2].
Take `FC(F)(F)c1cc(CO[C@H]2C3CCN(CC3)[C@H]2C(c2ccccc2)c2ccccc2)cc(C(F)(F)F)c1` [L-709210]: the IC50 at Substance-P receptor [1] worked out at 2 nM; at Substance-P receptor [2] it was 330 nM.
Regarding `Cc1cc(C)cc(CO[C@H]2C3CCN(CC3)[C@H]2C(c2ccccc2)c2ccccc2)c1` [L-706125], the figures for the IC50 at Substance-P receptor [1] and on Substance-P receptor [2] were 2 nM and 196 nM, respectively.
